Measurements as given in patent publication US8604059B2, “Thioxanthene derivatives for the treatment of infectious diseases” (BKG Pharma APS, priority 2009, dated 2013).
Several values for one entry are separate records, joined by “and”; a condition that tells them apart may be missing. Equal entries are not always repeated. Where two headings read alike, the source gives them in different places.

How the values were obtained:
[1] = test system: Multiresistant clinical isolates of S. aureus and S. epidermidis; assay: Maximal reversal of resistance and synergistic effect (Table 4b); type: cell-based; conditions: for MIC / MIC alone: antibiotic alone, ten strains in each group; for MIC / MIC plus compound 1 0.60 ug/ml / MIC compound 2 0.98 ug/ml / MIC plus compound 3 0.30 ug/ml / MIC plus compound 4 0.75 ug/ml / MIC alone: median; for Fold enhanced, compound 1 0.60 ug/ml: enhancement of antibiotic by compound 1 at 0.60 ug/ml; for Fold enhanced, compound 2 0.98 ug/ml: enhancement of antibiotic by compound 2 at 0.98 ug/ml; for Fold enhanced, compound 3 0.30 ug/ml: enhancement of antibiotic by compound 3 at 0.30 ug/ml; for Fold enhanced, compound 4 0.75 ug/ml: enhancement of antibiotic by compound 4 at 0.75 ug/ml; for MIC plus compound 1 0.60 ug/ml: MIC of antibiotic in presence of compound 1 at 0.60 ug/ml; for MIC compound 2 0.98 ug/ml: MIC of antibiotic in presence of compound 2 at 0.98 ug/ml; for MIC plus compound 3 0.30 ug/ml: MIC of antibiotic in presence of compound 3 at 0.30 ug/ml; for MIC plus compound 4 0.75 ug/ml: MIC of antibiotic in presence of compound 4 at 0.75 ug/ml
Procedure: (§1) The maximal obtained reversal of resistance and synergistic effect was tested as previously described.
Strains: Multiresistant clinical isolates of S. aureus and S. epidermidis, Ten strains in each group.

[2] = test system: Multiresistant clinical isolates E. coli; assay: Maximal reversal of resistance and synergistic effect (Table 4c); type: cell-based; conditions: for MIC: Escherichia coli; for MIC / MIC alone: antibiotic alone, ten strains; for MIC / MIC plus compound 1 1.0 ug/ml / MIC plus compound 2 2.0 ug/ml / MIC plus compound 3 0.6 ug/ml / MIC alone: median; for Fold enhanced, compound 1 1.0 ug/ml: enhancement of antibiotic by compound 1 at 1.0 ug/ml; for Fold enhanced, compound 2 2.0 ug/ml: enhancement of antibiotic by compound 2 at 2.0 ug/ml; for Fold enhanced, compound 3 0.6 ug/ml: enhancement of antibiotic by compound 3 at 0.6 ug/ml; for MIC plus compound 1 1.0 ug/ml: MIC of antibiotic in presence of compound 1 at 1.0 ug/ml; for MIC plus compound 2 2.0 ug/ml: MIC of antibiotic in presence of compound 2 at 2.0 ug/ml; for MIC plus compound 3 0.6 ug/ml: MIC of antibiotic in presence of compound 3 at 0.6 ug/ml
Procedure: as §1
Strains: Multiresistant clinical isolates E. coli, Ten strains in each group.

[3] = test system: Candida albicans; assay: Synergy with fluconazole, broth microdilution NCCLS M27-A (Table 10); type: cell-based; conditions: Candida albicans
Procedure: The isolates were subcultured for 24 h on Sabouraud glucose agar before susceptibility testing. Broth microdilution tests were performed according to NCCLS document M27-A (Ref: National Commitee for Clinical Laboratory Standards. (1997). Reference Method for Broth Dilution Antifungal Susceptibility Testing of Yeasts: Approved Standard M27-A. NCCLS, Wayne, Pa.) Microtitre plates were read spectrophotometrically at 530 nm, after mixing the wells by pipetting to resuspend yeast sediments. […] The Fractional Inhibitory Concentration (FIC) was calculated for the anti-infective agent alone and in combination with compound 3 and 4 (see table 4) as described above. Synergy was defined as a FIC index of <0.5.

[4] = test system: Enterococcus faecalis ENT 28 (VRE); assay: Mouse peritonitis model, neutropenic NMRI mice, enhancing effect with linezolid; type: in vivo
Procedure: A multiresistant clinical isolate of Enterococcus faecalis ENT 28 (VRE) from human urine was used.
Female NMRI mice (age, approximately 6 to 8 weeks; weight, 30±2 g) were used for the mouse […] peritonitis model (as described below).
In order to detect any synergistic effect, infected mice were treated with sub-therapeutic doses of each test compound alone or a mixture of the two compounds.
Bacterial suspensions were prepared from fresh overnight cultures (made from frozen stock cultures) on 5% blood agar plates as described above. The inoculum for the mouse peritonitis model was prepared immediately before use and was adjusted at 540 nm of giving a density of approximately 10^7 CFU/ml. The size of the inoculum was determined by viability counting on 5% blood agar.
Neutropenia was introduced by pretreating the mice with cyclophosphamide (6 mg daily for three days). […] Antibiotic therapy was initiated just after inoculation. Linezolid and compound 3 was administered subcutaneously in the neck region in a volume of 0.5 ml per dose. 3 mice were in each treatment group. Inoculated untreated control mice were included in all trials. (Method reference: Erlandsdottir et al; Antimicrob Agents Chemother. 2001 April; 45(4):1078-85)
The effects of the various treatment regimens were determined during 5 h of treatment by evaluation of bacterial counts in the peritoneal fluid. After the mice were killed, peritoneal washes were performed by injecting 2 ml of sterile saline intraperitoneally, followed by massage of the abdomen and then opening of the peritoneum to collect the fluid. Peritoneal fluids were immediately diluted 10-fold in saline, from which 20 μl was plated onto 5% blood agar plates in spots, with subsequent counting of colonies after incubation overnight at 35° C. The lowest detection levels for bacterial counts in blood and peritoneal fluid were 50 and 250 CFU/ml, respectively.

[5] = treatment 0 and 2 hours, sampling 5 hours, sub-therapeutic doses as in Table 9, individual mice

| Compound | MIC [1] [µg/mL] | Fold enhanced, compound 1 0.60 ug/ml [1] | Fold enhanced, compound 2 0.98 ug/ml [1] | Fold enhanced, compound 3 0.30 ug/ml [1] | Fold enhanced, compound 4 0.75 ug/ml [1] | Fold enhanced, compound 1 1.0 ug/ml [2] | Fold enhanced, compound 2 2.0 ug/ml [2] | Fold enhanced, compound 3 0.6 ug/ml [2] | MIC plus compound 1 0.60 ug/ml [1] [µg/mL] | MIC compound 2 0.98 ug/ml [1] [µg/mL] | MIC plus compound 3 0.30 ug/ml [1] [µg/mL] | MIC plus compound 4 0.75 ug/ml [1] [µg/mL] | MIC alone [1] [µg/mL] | further results |
| --- | --- | --- | --- | --- | --- | --- | --- | --- | --- | --- | --- | --- | --- | --- |
| CC1(C)S[C@@H]2[C@H](NC(=O)[C@H](N)c3ccccc3)C(=O)N2[C@H]1C(=O)O [Ampicillin] | 16 | 4 (4) | 4 (4) | 8 | 4 (4) | 8 | 4 | 16 | – | – | – | – | – | MIC [2]: 32 µg/mL |
| CC1(C)S[C@@H]2[C@H](NC(=O)Cc3ccccc3)C(=O)N2[C@H]1C(=O)O [Benzylpenicillin] | 64 | 8 (8) | 8 (8) | 16 | 8 (8) | – | – | – | – | – | – | – | – | – |
| CC[C@H]1OC(=O)[C@H](C)[C@@H](O[C@H]2C[C@@](C)(OC)[C@@H](O)[C@H](C)O2)[C@H](C)[C@@H](O[C@@H]2O[C@H](C)C[C@H](N(C)C)[C@H]2O)[C@](C)(O)C[C@@H](C)C(=O)[C@H](C)[C@@H](O)[C@]1(C)O [Erythromycin] | 16 | 4 (4) | 4 (4) | 8 | 4 (4) | – | – | – | – | – | – | – | – | – |
| OC(Cn1cncn1)(Cn1cncn1)c1ccc(F)cc1F [Fluconazole] | – | – | – | – | – | – | – | – | – | – | – | – | – | MIC ([3]; Table 10A, fluconazole in presence of compound 3 at 0.25 μg/ml, read-out: MIC FL + comp 3 (0.25 μg/m1)): 4 µg/mL; MIC ([3]; Table 10B (compound 4), fluconazole in presence of compound at 0.50 μg/ml, read-out: MIC FL + comp 3 (0.50 μg/ml)): 8 µg/mL; MIC ([3]; read-out: MIC Fluconazole (FL)): 128 µg/mL |
| CC(=O)NC[C@H]1CN(c2ccc(N3CCOCC3)c(F)c2)C(=O)O1 [Linezolid] | – | – | – | – | – | – | – | – | – | – | – | – | – | Effect on the infection / bacteria in mouse peritoneum ([4]; sub-therapeutic dose alone): no effect on the infection; score at sampling ([4]; treatment 0 and 2 hours, sampling 5 hours, Linezolid 1 mg/ml 0.5 ml, Compound 3 0.1 mg/ml 0.5, combination Linezolid 2 mg/ml (0.25 ml) and compound 3 0.2 mg/ml (0.25 ml), individual mice): 2 and 3 (2×); Cfu/ml peritoneum [4, 5]: 2.08E+09 Cfu/ml and 2.20E+09 Cfu/ml and 2.40E+09 Cfu/ml; log (cfu/ml) peritoneum [4, 5]: 9.32 log (cfu/ml) and 9.34 log (cfu/ml) and 9.38 log (cfu/ml) |
| CCN1CCN(C(=O)N[C@@H](C(=O)N[C@@H]2C(=O)N3[C@@H]2SC(C)(C)[C@@H]3C(=O)O)c2ccccc2)C(=O)C1=O [Piperacillin] | – | – | – | – | – | 4 (4) | 4 (4) | 8 | – | – | – | – | – | MIC [2]: 16 µg/mL |
| CN(C)[C@@H]1C(=O)C(C(N)=O)=C(O)[C@@]2(O)C(=O)C3=C(O)c4c(O)cccc4[C@@](C)(O)[C@H]3C[C@@H]12 [Tetracyclin] | – | 2 | 2 | 4 | 2 | 4 (4) | 4 (4) | 8 | 4 | 8 | 2 | 8 | 16 | MIC plus compound 1 1.0 ug/ml [2]: 4 (4) μg/ml; MIC plus compound 2 2.0 ug/ml [2]: 4 (4) μg/ml; MIC plus compound 3 0.6 ug/ml [2]: 2 µg/mL; MIC alone [2]: 16 µg/mL |
| Dicloxacillin & Methicillin | – | 16 | 16 | 32 | 16 | – | – | – | 4 | 4 | 2 | 4 | 64 | – |
| Gentamicin | – | 2 | 2 | 4 | 2 | 2 | 2 | 4 | 4 | 4 | 2 | 4 | 8 | MIC plus compound 1 1.0 ug/ml [2]: 4 µg/mL; MIC plus compound 2 2.0 ug/ml [2]: 4 µg/mL; MIC plus compound 3 0.6 ug/ml [2]: 2 µg/mL; MIC alone [2]: 8 µg/mL |
